The results in this text go back to patent US20230263822A1, “MODULATION OF FACTOR 11 EXPRESSION” (Ionis Pharmaceuticals, Inc., priority 2008, published 2023).

Strand notation (5' to 3'): a small letter for the sugar, then the base; units joined by * are phosphorothioate-linked, units joined directly phosphodiester-linked; [ ] holds rarer units or linkages, { } end groups; capitals alone tell only the bases. e = 2'-O-(2-methoxyethyl) (MOE); [5mC] = 5-methylcytosine; d = 2'-deoxy (DNA)

Data set [1] concerns human Factor 11 mRNA. The data set is described as follows: Dose-dependent antisense inhibition of human Factor 11 in HepG2 cells, lipofectin 9.375-150 nM (Example 2). The data set is classed as cell-based. As to conditions: ~16 h.
Details of data set [2]: species or system Sprague-Dawley rats. As to conditions: rat, in vivo, sc, 20 mg/kg. An outline of the steps: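 Full-length and total (including degraded) oligonucleotide concentrations measured in liver and kidney tissue by phenol-chloroform extraction then solid phase extraction, with a 27-mer 2′-O-methoxyethyl phosphorothioate internal standard added before extraction. Values expressed as μg/g tissue; half-lives calculated from these concentrations.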

Data set [3] has as its system human Factor 11 mRNA. The data set is described as follows: Dose-dependent inhibition of human Factor 11 in HepB3 cells, electroporation (Example 7). It counts as cell-based. As to conditions: for percent inhibition of human Factor 11 mRNA relative to untreated control cells: ~16 hours. The method, then:
The gapmers were also transfected via electroporation and their dose dependent inhibition of human Factor 11 mRNA was measured. Cells were plated at a density of 20,000 cells per well and transfected via electroporation with 41.15 nM, 123.457 nM, 370.37 nM, 1111.11 nM, 3333.33 nM, and 10,000 nM concentrations of antisense oligonucleotide, as specified in Table 15. After a treatment period of approximately 16 hours, RNA was isolated from the cells and human Factor 11 mRNA levels were measured by quantitative real-time PCR. Human Factor 11 primer probe set RTS 2966 was used to measure mRNA levels. Factor 11 mRNA levels were adjusted according to total RNA content, as measured by RIBOGREEN. Results are presented as percent inhibition of human Factor 11, relative to untreated control cells.

Details of data set [4]: species or system Sprague-Dawley rats. Particulars: rat, in vivo. How it is done:
Three days after the last dose, the rats were sacrificed and livers and kidneys were collected for analysis.
The concentration of the full-length oligonucleotide as well as the total oligonucleotide concentration (including the degraded form) was measured. The method used is a modification of previously published methods (Leeds et al., 1996; Geary et al., 1999) which consist of a phenol-chloroform (liquid-liquid) extraction followed by a solid phase extraction. An internal standard (ISIS 355868, a 27-mer 2′-O-methoxyethyl modified phosphorothioate oligonucleotide, […], designated herein as SEQ ID NO: 270) was added prior to extraction. […] The results are presented in Tables 77 and 78, expressed as μg/g liver or kidney tissue. Half-lives were then calculated using WinNonlin software ([…]).

A short description of data set [5]: Liver function, ALT, AST, bilirubin in cynomolgus monkeys (Example 46). The data set is classed as in vivo. As to conditions: plasma. How it is done: Groups, each consisting of two male and two female monkeys, were injected subcutaneously with 25 mg/kg of ISIS 416850, ISIS 449709, ISIS 445522, ISIS 449710, ISIS 449707, ISIS 449711, ISIS 449708, 416858, and ISIS 445531. Antisense oligonucleotide was administered to the monkeys at 25 mg/kg three times per week for week 1 and 25 mg/kg twice per week for weeks 2 to 8. A control group, consisting of two male and two female monkeys was injected subcutaneously with PBS according to the same dosing regimen. Body weights were taken 14 days and 7 days before the start of treatment and were then measured weekly throughout the treatment period. Blood samples were collected 14 days and 5 days before the start of treatment and subsequently several times during the dosing regimen for PT and aPTT measurements, and measurement of various hematologic factors. On day 55, the monkeys were euthanized by exsanguination while under deep anesthesia, and organs harvested for further analysis.
Plasma concentrations of alanine transaminase (ALT) and aspartate transaminase (AST) were measured and the results are presented in Tables 152 and 153 expressed in IU/L. Plasma levels of bilirubin were also measured and results are presented in Table 154 expressed in mg/dL. As observed in Tables 152-154, there were no significant increases in any of the liver metabolic markers after antisense oligonucleotide treatment.

Data set [6] in a line: Tolerability in CD1 mice: liver function (Example 41). As to conditions: 50 mg/kg s.c. twice per week for 6 weeks, plasma.
Data set [7] in a line: Tolerability in CD1 mice: body weight and organ weight (Example 41). As to conditions: 50 mg/kg s.c. twice per week for 6 weeks; for body weight: increase in grams over the PBS control weight taken before the start of treatment; for Kidney weight / Liver weight / Spleen weight: percentage of the body weight.

With “412225 (antisense GCAGCGGACGGCATTGGTGC; 5-10-5 MOE gapmer, further chemistry not given here) [compound 412225]”, in the data set on human Factor 11 mRNA [1], the “percent inhibition of Factor 11 at 9.375 nM” value came out at 32%, the “percent inhibition of Factor 11 at 18.75 nM” value came to 42%, the “percent inhibition of Factor 11 at 37.5 nM” value came out at 65% and the “percent inhibition of Factor 11 at 75 nM” value turned out to be 78%. For the same substance, in the data set with human Factor 11 mRNA [1], the “percent inhibition of Factor 11 at 150 nM” value was 73% and the IC50 is 23 nM. Moreover, in data set [2], the “Half-life of ISIS oligonucleotides in the liver and kidney” value is given as 21 days.
With “413482 (antisense GGACGGCATTGGTGCACAGT; 5-10-5 MOE gapmer, further chemistry not given here) [compound 413482]”, in the data set on human Factor 11 mRNA [1], the “percent inhibition of Factor 11 at 9.375 nM” value came to 26%, the “percent inhibition of Factor 11 at 18.75 nM” value is recorded as 39%, the “percent inhibition of Factor 11 at 37.5 nM” value stood at 59% and the “percent inhibition of Factor 11 at 75 nM” value was 74%. In addition, in the data set on human Factor 11 mRNA [1], the “percent inhibition of Factor 11 at 150 nM” value worked out at 82% and the IC50 is 28 nM. Besides, the “Half-life of ISIS oligonucleotides in the liver and kidney” value in data set [2] is given as 20 days.
In the data set on human Factor 11 mRNA [3], “416825 (antisense GCCCTTCATGTCTAGGTCCA; 5-10-5 gapmer, further chemistry not given here) [compound 416825]” came in with an IC50 of 160 nM. Further, the “percent inhibition of human Factor 11 mRNA relative to untreated control cells” value turned out to be 32% with human Factor 11 mRNA [3] (41.15 nM); 40% in the data set with human Factor 11 mRNA [3] (123.457 nM); 48% in the data set on human Factor 11 mRNA [3] (370.37 nM); 75% in the data set with human Factor 11 mRNA [3] (1111.11 nM); 90% with human Factor 11 mRNA [3] (3333.33 nM); 92% in the data set on human Factor 11 mRNA [3] (10000 nM). In addition, in data set [4], the “Half-life in the liver and kidney” value was found to be 16 days.
Take “416826 (antisense ATGCCCTTCATGTCTAGGTC; 5-10-5 gapmer, further chemistry not given here) [compound 416826]”: half-maximal inhibition in the data set on human Factor 11 mRNA [3] (IC50) required 780 nM. The “percent inhibition of human Factor 11 mRNA relative to untreated control cells” value is 0% with human Factor 11 mRNA [3] (41.15 nM); 0% with human Factor 11 mRNA [3] (123.457 nM); 34% in the data set with human Factor 11 mRNA [3] (370.37 nM); 61% in the data set with human Factor 11 mRNA [3] (1111.11 nM); 87% in the data set on human Factor 11 mRNA [3] (3333.33 nM); 92% in the data set with human Factor 11 mRNA [3] (10000 nM). For the same substance, the “Half-life in the liver and kidney” value in data set [4] came to 13 days.
“416838 (antisense GCAACCGGGATGATGAGTGC; 5-10-5 gapmer, further chemistry not given here) [compound 416838]” had an IC50 with human Factor 11 mRNA [3] of 1200 nM. The “percent inhibition of human Factor 11 mRNA relative to untreated control cells” value was found to be 12% with human Factor 11 mRNA [3] (41.15 nM); 9% in the data set on human Factor 11 mRNA [3] (123.457 nM); 28% in the data set with human Factor 11 mRNA [3] (370.37 nM); 40% in the data set with human Factor 11 mRNA [3] (1111.11 nM); 77% in the data set on human Factor 11 mRNA [3] (3333.33 nM); 88% in the data set on human Factor 11 mRNA [3] (10000 nM). The “Half-life in the liver and kidney” value in data set [4] was determined as 13 days.
For “416850 (antisense TGCACAGTTTCTGGCAGGCC; 5-10-5 gapmer, further chemistry not given here) [compound 416850]”, in the data set with human Factor 11 mRNA [3], the midpoint of inhibition, the IC50, lay at 300 nM. Also, the “percent inhibition of human Factor 11 mRNA relative to untreated control cells” value with human Factor 11 mRNA [3] (41.15 nM) was found to be 26%; with human Factor 11 mRNA [3] (123.457 nM) it was 38%; in the data set with human Factor 11 mRNA [3] (370.37 nM), 51%; with human Factor 11 mRNA [3] (1111.11 nM), 73%; in the data set with human Factor 11 mRNA [3] (3333.33 nM), 90%; in the data set on human Factor 11 mRNA [3] (10000 nM), 95%. The “Half-life in the liver and kidney” value in data set [4] was 18 days.
With “ISIS 416850: MOE gapmer, nucleobases 1275 to 1318 of SEQ ID NO: 1 (Table 8) (antisense TGCACAGTTTCTGGCAGGCC; MOE gapmer, wing and gap sizes not given here)”, in data set [5] (Day 31), the ALT is given as 45 IU/L, the AST is recorded as 46 IU/L and the Bilirubin came to 0.26 mg/dL. Also, in data set [5] (Day 55), the ALT was found to be 55 IU/L, the AST came out at 57 IU/L and the Bilirubin is 0.17 mg/dL. In data set [5] (Day −5), this substance registered an ALT of 42 IU/L, an AST of 45 IU/L and a Bilirubin of 0.22 mg/dL. In data set [5] (Day −14), this substance showed an ALT of 48 IU/L, an AST of 62 IU/L and a Bilirubin of 0.26 mg/dL. Moreover, in data set [6], the ALT stood at 90 IU/L, the AST came to 115 IU/L, the Albumin was determined as 3.2 and the Bilirubin was 0.20 mg/dL. In data set [7], this substance yielded a body weight of 11 g, a Kidney weight of 1.5%, a Liver weight of 6% and a Spleen weight of 0.4%.
With “ISIS 445522: 5-8-5 or 6-8-6 MOE microwalk gapmer (Table 44) (antisense eG*e[5mC]*eA*e[5mC]*eA*dG*dT*dT*dT*d[5mC]*dT*dG*dG*e[5mC]*eA*eG*eG*e[5mC])”, in data set [5] (Day 31), the ALT came out at 40 IU/L, the AST amounted to 46 IU/L and the Bilirubin turned out to be 0.14 mg/dL. In data set [5] (Day 55), this substance displayed an ALT of 60 IU/L, an AST of 79 IU/L and a Bilirubin of 0.18 mg/dL. Moreover, in data set [5] (Day −5), the ALT was determined as 45 IU/L, the AST turned out to be 47 IU/L and the Bilirubin came to 0.20 mg/dL. For the same substance, in data set [5] (Day −14), the ALT is 43 IU/L, the AST is 62 IU/L and the Bilirubin is recorded as 0.24 mg/dL. Further, in data set [6], the ALT amounted to 51 IU/L, the AST worked out at 110 IU/L, the Albumin turned out to be 3.4 and the Bilirubin is recorded as 0.19 mg/dL. In data set [7], this substance showed a body weight of 11 g, a Kidney weight of 1.7%, a Liver weight of 6% and a Spleen weight of 0.4%.
As for “ISIS 445531: 5-8-5 or 6-8-6 MOE microwalk gapmer (Table 44) (antisense eG*eG*e[5mC]*eA*eT*dT*dG*dG*dT*dG*d[5mC]*dA*d[5mC]*eA*eG*eT*eT*eT)”, in data set [5] (Day 31), the ALT came to 57 IU/L, the AST came out at 47 IU/L and the Bilirubin is recorded as 0.13 mg/dL. Moreover, in data set [5] (Day 55), the ALT amounted to 73 IU/L, the AST amounted to 49 IU/L and the Bilirubin is listed as 0.11 mg/dL. Also, in data set [5] (Day −5), the ALT is 73 IU/L, the AST is listed as 46 IU/L and the Bilirubin is 0.18 mg/dL. In addition, in data set [5] (Day −14), the ALT stood at 84 IU/L, the AST amounted to 78 IU/L and the Bilirubin is listed as 0.22 mg/dL. In data set [6], this substance gave an ALT of 60 IU/L, an AST of 127 IU/L, an Albumin of 3.2 and a Bilirubin of 0.16 mg/dL. In data set [7], the body weight is listed as 10 g, the Kidney weight is reported as 1.5%, the Liver weight amounted to 6% and the Spleen weight amounted to 0.5%.

For orientation: IC50 means the concentration that inhibits the measured activity by half. A lower IC50 goes with greater potency in that assay.
